# PMC7956620 (Molecules, 2021)
# Where a chain is given by its changes, count along the chain named.
# Assays:
# [1] = target: T1, 5-HT3A receptor N138A mutant (Homo sapiens, UniProt P46098, N133A); test: two-electrode voltage clamp, N138A mutant receptor in Xenopus oocytes; type: cell-based; details: 100 µM chanoclavine, read-out: Inhibition Percentage (%)
# T1 construct: host or cells: Xenopus laevis oocytes injected with in vitro transcribed mRNA
# T1 sequence (P46098 24-478 N133A): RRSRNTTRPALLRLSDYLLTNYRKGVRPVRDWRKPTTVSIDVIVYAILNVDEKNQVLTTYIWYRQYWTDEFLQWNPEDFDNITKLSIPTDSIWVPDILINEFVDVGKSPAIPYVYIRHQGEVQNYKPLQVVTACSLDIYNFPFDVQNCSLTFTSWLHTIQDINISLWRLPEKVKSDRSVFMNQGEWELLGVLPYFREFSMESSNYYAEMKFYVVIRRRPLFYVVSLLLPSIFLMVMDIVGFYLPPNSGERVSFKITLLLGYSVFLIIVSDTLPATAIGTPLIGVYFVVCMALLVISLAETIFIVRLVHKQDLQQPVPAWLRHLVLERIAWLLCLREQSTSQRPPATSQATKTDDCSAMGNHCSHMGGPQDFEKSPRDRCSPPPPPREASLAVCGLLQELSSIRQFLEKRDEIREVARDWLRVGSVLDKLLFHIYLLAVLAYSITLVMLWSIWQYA
# Description: (§1) The site-directed mutation of one or two amino acids was performed using sense and antisense primers and Pfu polymerase (QuickChange Site-Directed Mutagenesis Kit; Agilent, Santa Clara, CA, USA) and amplified by polymerase chain reaction (PCR) to increase the target domain. After removing the existing methylated cDNA using Dpn Ⅰ, the PCR products were transformed into Escherichia coli strain DH5α. The cDNA of the 5-HT3A receptor was linearized by Xho Ⅰ at the end of the multi-cloning site, followed by transcription using T7 polymerase and a transcription kit (mMESSAGE mMACHINE T7 Transcription Kit; Thermo Fisher Scientific, Waltham, MA, USA). […]
# (§2) To isolate oocytes, female Xenopus laevis were put into a container filled with ice and left for about one hour. […] When the Xenopus oocytes were ready for injection, 50 ng of mRNA was injected with a nanoliter injector (Drummond Scientific, Vernon Hills, IL, USA). […]
# (§3) The oocytes in which mRNA was expressed during the incubation period allowed for the estimation of channel or receptor properties for observing drug and ligand potential interactions using a two-electrode voltage clamp (OC-725C; Warner Instruments, Hamden, CT, USA) and Digidata (1322A; Molecular Devices, Sunnyvale, CA, USA). […] The voltage and current electrodes were filled with 3 M KCl (0.3–0.7 MΩ) and analyzed at a −80 mV holding potential. […]
# [2] = target: T2, 5-HT3A receptor F130A+N138A double mutant (Homo sapiens, UniProt P46098, F125A/N133A); test: two-electrode voltage clamp, F130A+N138A double mutant receptor in Xenopus oocytes; type: cell-based; details: 300 µM chanoclavine with 5-HT
# T2 construct: host or cells: Xenopus laevis oocytes injected with in vitro transcribed mRNA
# T2 sequence (P46098 24-478 F125A/N133A): T1 sequence (P46098 24-478 N133A) with F102A
# Description: as §1, §2, §3
# [3] = test system: 5-HT3A receptor I228A mutant; test: two-electrode voltage clamp, I228A mutant receptor in Xenopus oocytes; type: cell-based, human; details: 100 µM chanoclavine
# Description: as §1, §2, §3
# [4] = target: T3, 5-HT3A receptor Y153A mutant (Homo sapiens, UniProt P46098, Y148A); test: two-electrode voltage clamp, Y153A mutant receptor in Xenopus oocytes; type: cell-based; details: 100 µM chanoclavine, read-out: Inhibition Percentage (%)
# T3 construct: host or cells: Xenopus laevis oocytes injected with in vitro transcribed mRNA
# T3 sequence (P46098 24-478 Y148A): T1 sequence (P46098 24-478 N133A) with A110N, Y125A
# Description: as §1, §2, §3
smiles,measurement,setting,value
CN[C@@H]1Cc2c[nH]c3cccc(c23)[C@H]1/C=C(\C)CO [chanoclavine],inhibition at 100 µM,[1],-1.64 ± 6.2%
same,effect on inward current,[2],not significantly decreased
same,Inhibition Percentage (%),[3],66.16 ± 9.2%
same,inhibition at 100 µM,[4],56.9 ± 3.6%
